The values that follow come from patent US6548540B2, “Method of treating cancer using dithiocarbamate derivatives” (Charlotte-Mecklenburg Hospital Authority, priority 1998, dated 2003).

Broadly, the inhibition is the share of the control response that was lost under treatment. For orientation: inhibition of growth means the percentage by which the read-out fell short of the control.

In one assay the test system is M1619 melanoma cells. The assay can be described thus: MTT proliferation assay, M1619 melanoma. The assay is classed as cell-based, human. As to the method: Human malignant cell lines were obtained from American Type Tissue Culture Collection (Rockville, Md.). Melanoma cells lines CRL 1585 and 1619 were cultured in RPMI 1640 (GIBCO-BRL, Life Technologies, Grand Island, N.Y.) with 10% FBS and passed with nonenzymatic Cell Dissociation Solution® (Sigma). The prostate adenocarcinoma cell line CRL 1435 (PC-3) was also cultured in RPMI 1640 with 10% FBS but passed with 0.05% trypsin and 0.53 mM EDTA. The squamous lung carcinoma NCI-H520 and the adenosquamous lung carcinoma NCI-H596 cell lines were grown in RPMI 1640 supplemented with 10% FBS, 10 mM HEPES and 1.0 mM sodium pyruvate and passed with trypsin/EDTA. The small cell lung carcinoma NCI-H82 was cultured as a suspension in RPMI 1640 with 10% FBS. All of the above were grown in a 37° C. humidified environment containing 5% CO2/air. The breast carcinoma cell line MDA-MB-453 was grown in a 37° C. humidified environment with free gas exchange with atmospheric air using Leibovitz's L-15 medium with 2 mM L-glutamine and 10% FBS and was passed with trypsin/EDTA.
The effect of disulfiram (0.15 to 5.0 μM), diethyldithiocarbamate (DDC, 1.0 μM) or PDTC (0.625 to 5.0 μM) on proliferation of malignant cell lines was studied in cultures stimulated with 10% FBS. Cell numbers were quantitated 24-72 hours later. In some experiments disulfiram or PDTC were added immediately after cells were plated. In other experiments, cells were plated and allowed to grow for 24-72 hours before fresh media with disulfiram or PDTC was added, and cell numbers were assayed 24-72 hours later.
Finally, a number of dithiocarbamate effects on cells have been attributed to increasing the intracellular levels of copper ions. To further probe the role of copper in mediating cytotoxicity from disulfiram, cells were cultured with or without addition of the impermeate Cu^2+ chelator bathocuprioinedisulfonic acid (BCPS, 100 μM) added to medium to sequester Cu^2+ in the extracellular compartment. Cells were also treated 12 hours with various concentration of disulfiram (0.625 to 5.0 μM) and intracellular copper levels were measured as outlined below.
Proliferation of cultured cells was quantitated using a previously reported calorimetric method based upon metabolic reduction of the soluble yellow tetrazolium dye 3-[4,5-dimethylthiazol]-2yl-2,5-diphenyl tetrazolium bromide (MTT) to its insoluble purple formazan by the action of mitochondrial succinyl dehydrogenase (See, e.g., S. J. Hirst, et al., “Quantifying proliferation of cultured human and rabbit airway smooth muscle in response to serum and platelet derived growth factor,” Am. J. Respir. Cell Mol. Biol. 7:574-581 (1992); R. Dashtaki, et al. R., supra; S. S. Brar, et al., “Requirement for reactive oxygen species in serum-induced and platelet-derived growth factor-induced growth of airway smooth muscle,” J. Biol. Chem. 274:20017-20026 (1999)). This assay empirically distinguishes between dead and living cells. For proliferation studies, cells were seeded into 24-well uncoated plastic plates (Costar) at 50,000 cells per well and cultured with respective media and mitogens.
In general terms: Tetrazolium assays rely on reduction of a dye to a coloured formazan, in cell work by metabolically active cells.

The next assay deals with tumor cell lines. The assay can be described thus: Proliferation of tumor cell lines with redox, NO synthase or cyclooxygenase agents (cell line not given). Format: cell-based, human. The method, then: Potential redox effects of disulfiram were studied in three sets of experiments. The importance of cellular glutathione (GSH) in mediating or modulating thiocarbamate toxicity was studied by measuring levels of intracellular GSH after treatment with disulfiram. […] Also, to assess whether a nonspecific antioxidant effect of disulfiram or PDTC might account for cellular growth inhibition, we studied the effect of the potent lipophilic antioxidant probucol (1.0 to 1,000 μM) on proliferation of malignant cell lines. […] To explore the role of cyclooxygenase inhibition on tumor cell growth, cells were cultured with or without disulfiram in the presence or absence of the cyclooxygenase-1 (COX1) and cyclooxygenase-2 (COX2) inhibitors indomethacin (5μg/ml) or sodium salicylate (1 mM). To probe whether disulfiram might be inducing growth retardation by interruption or stimulation of NO production, proliferation was studied with and without disulfiram in the presence and absence of the nitric oxide […] inhibitor Nω-nitro-L-arginine added to growth medium (100 μM). […] J. Respir. Cell Mol. Biol. 7:574-581 (1992); […], et al. R., supra; S. S. Brar, et al., “Requirement for reactive oxygen species in serum-induced and platelet-derived growth factor-induced growth of airway smooth muscle,” J. Biol. Chem. 274:20017-20026 (1999)). This assay empirically distinguishes between dead and living cells. For proliferation studies, cells were seeded into 24-well uncoated plastic plates (Costar) at 50,000 cells per well and cultured with respective media and mitogens. […] MTT-containing medium was removed, 0.5 ml dimethylsulfoxide (DMSO) was added to each well, and the absorbance of the solubilized purple formazan dye was measured at 540 nm. A total of 4-6 wells were studied at each treatment condition.

For the compound `CCN(CC)C(=S)SSC(=S)N(CC)CC` [Disulfiram, tetraethylthiuram disulfide], in the assay with M1619 melanoma cells (Homo sapiens, M1619, grown 24 hours, additional 24 hours, no added CuSO4, read-out: 50% inhibitory (IC50) concentration), the IC50 was 625 nM. For the same compound, the inhibition at 0.625 µM in the assay with M1619 melanoma cells (Homo sapiens, disulfiram 0.625 μM, treatment after 24 hours of growth, read-out: Mean Percent Inhibition of Growth) amounted to 59 ± 4%. The inhibition at 1.25 µM with M1619 melanoma cells (Homo sapiens, disulfiram 1.25 μM, treatment after 24 hours of growth, read-out: Mean Percent Inhibition of Growth) is 35 ± 4%. Moreover, the inhibition at 2.5 µM with M1619 melanoma cells (Homo sapiens, disulfiram 2.5 μM, treatment after 24 hours of growth, read-out: Mean Percent Inhibition of Growth) was determined as 39 ± 3%. Besides, the inhibition at 5 µM in the assay with M1619 melanoma cells (Homo sapiens, disulfiram 5.0 μM, treatment after 24 hours of growth, read-out: Mean Percent Inhibition of Growth) was 37 ± 4%. Besides, the “100% inhibitory (IC100) concentration” value in the assay on M1619 melanoma cells (M1619, with 0.2 μM CuSO4 added to medium, grown 24 hours, additional 24 hours) amounted to 0.625 µM. For the same compound, the “growth in vitro of M1619 melanoma” value with M1619 melanoma cells (added at plating, 24 hours) is reported as “potent inhibitor of growth”. The “A540 of MTT Formazan” value in the assay with M1619 melanoma cells (disulfiram 0.6 μM + carmustine 1 μM, 24 hours) is 0.042 ± 0.003^C; in the assay with M1619 melanoma cells (disulfiram 0.6 μM + carmustine 10 μM, 24 hours) it was 0.025 ± 0.002^C; with M1619 melanoma cells (disulfiram 0.6 μM + carmustine 100 μM, 24 hours), 0.030 ± 0.023; in the assay with M1619 melanoma cells (disulfiram 0.6 μM + carmustine 1,000 μM, 24 hours) it was 0.004 ± 0.000; in the assay on M1619 melanoma cells (disulfiram 2.5 μM + cisplatin 1 ng/ml, added after 48 hours, additional 24 hours), 1.369 ± 0.033^B; in the assay with M1619 melanoma cells (disulfiram 2.5 μM + cisplatin 10 ng/ml, added after 48 hours, additional 24 hours), 1.221 ± 0.028. Moreover, the “A540 of MTT Formazan” value is 1.183 ± 0.038^A with M1619 melanoma cells (disulfiram 2.5 μM + cisplatin 100 ng/ml, added after 48 hours, additional 24 hours) and 0.921 ± 0.027^A in the assay with M1619 melanoma cells (disulfiram 2.5 μM + cisplatin 1,000 ng/ml, added after 48 hours, additional 24 hours). In addition, the inhibition of growth in the assay with tumor cell lines (disulfiram alone) stood at 36.8±4.0%; with tumor cell lines (disulfiram plus LNAME) it was 26.7±3.1%.
